Results from US20050019926A1, “Compositions of nucleic acids and cationic aminoglycosides and methods of using and preparing the same” (Aradigm Corporation, priority 2001, published 2005).

How the values were obtained:
[1] = intravenous and subcutaneous; patients with normal renal function; Physicians' Desk Reference, 2001; cited from earlier work
plasmid DNA = test: agarose gel electrophoresis (gel retardation) of nucleic acid-aminoglycoside complexes; type: binding; conditions: plasmid DNA complexed with 5-100 mM aminoglycoside
Method: Plasmid DNA and the three different prototype aminoglycosides (neomycin, gentamycin, tobramycin) were diluted to 2× the final desired concentration in separate vials. In formulations with a molar excess of DNA, the diluted aminoglycoside solution was added to the DNA using a pipette with light vortexing. In formulations with a molar excess of aminoglycoside, the DNA was added to the aminoglycoside solution with light vortexing. The formulations were allowed to rest for about 30 minutes before characterization. Complexes of Nucleic Acid-Aminoglycoside were prepared according to the above described method and then analyzed using agarose gel electrophoresis to verify that the nucleic acids were being complexed with the aminoglycosides. Specifically, complexes having varying doses of DNA to three different aminoglycosides were prepared such that plasmid DNA was complexed with 5-100 mM of Neomycin, Tobramycin and Gentamicin.

Compound | high dose delivered without adverse or unacceptable therapeutic effects [1] | gel retardation (complexation of DNA with aminoglycoside) (plasmid DNA)
NCC[C@H](O)C(=O)N[C@@H]1C[C@H](N)[C@@H](O[C@H]2O[C@H](CN)[C@@H](O)[C@H](O)[C@H]2O)[C@H](O)[C@H]1O[C@H]1O[C@H](CO)[C@@H](O)[C@H](N)[C@H]1O [amikacin] | 15 mg/kg of body weight per day | 
neomycin |  | dose-dependant increase in gel retardation
NC[C@H]1O[C@H](O[C@H]2[C@H](O)[C@@H](O[C@H]3O[C@H](CO)[C@@H](O)[C@H](N)[C@H]3O)[C@H](N)C[C@@H]2N)[C@H](N)C[C@@H]1O [Tobramycin, tobramycin] |  | dose-dependant increase in gel retardation
Gentamicin | 5 mg/kg of body weight per day | dose-dependant increase in gel retardation
